Consider two substances from article PMC2992454 (ACS chemical neuroscience, 2010).

The target in experiment [1] is h20S proteasome, chymotrypsin-like activity (Homo sapiens, UniProt P28074). The experiment is described as follows: Kinetic analysis of proteasome chymotrypsin-like activity with or without Aβ. It counts as biochemical. To be noted: pH 7.8, 37°C; for Vmax: LLVY-AMC 0–200 µM, 40 ng h20S in 100 µL.
A further experiment has as its system 20S proteasome. To be noted: localize inside the 20S subunit along the active proteolytic site; ref [14], [15]; cited from earlier work.

As for “N-Succinyl-Leu-Leu-Val-Tyr-AMC [LLVY-AMC]”, the Vmax is 3.1 ± 0.1 x10^−2µM/min in experiment [1] (0 µM Aβ(1–42)), 3.5 ± 0.2 x10^−2µM/min in experiment [1] (1 µM oligomeric Aβ(1–42)) and 3.7 ± 0.3 x10^−2µM/min in experiment [1] (5 µM oligomeric Aβ(1–42)). The “Vmax, lower end over all Aβ concentrations” value in experiment [1] (oligomeric Aβ(1–42) 0–5 µM, Table 1: 0 and 0.5 µM Aβ, LLVY-AMC) came out at 0.031 ± 0.001 µM/min. In experiment [1] (oligomeric Aβ(1–42) 0–5 µM, Table 1: 5 µM Aβ, LLVY-AMC), the “Vmax, upper end over all Aβ concentrations” value stood at 0.037 ± 0.003 µM/min.
On to Aβ(1–40): Aβ(1–40) peptides, for which the “effect on chymotrypsin-like activity of the proteasome” value with 20S proteasome is recorded as “inhibit the chymotrypsin-like activity of the proteasome”.
